Laboratory results from US5753636A, “Injection solution for intramuscular and subcutaneous administration to animals” (priority 1993, dated 1998).
Where two headings read alike, the source gives them in different places.

What was measured:
injection site [1] = conditions: cited from earlier work
injection site [2] = assay: Local tolerability / irritation at the injection site, general statements; conditions: applicant's statement
injection site [3] = conditions: in vivo
[4] = statement on known products, solvents or bases

**Q.** For `CC(O)CO` (centres unmarked) [1,2-propanediol], which “local tolerability / irritation” value (injection site [1]; [4]) is on record?
**A.** The value was “highly irritant and have haemolytic effects”.

**Q.** With `N=C(N)NCCC[C@H](N)C(=O)O` [L-arginine] as the compound, how does the “local tolerability / irritation” value (injection site [2]) read?
**A.** Its value is “excellent local tolerability”.

**Q.** For `NCCCC[C@H](N)C(=O)O` [L-lysine], which “local tolerability / irritation” value (injection site [2]) is on record?
**A.** The value was “excellent local tolerability”.

**Q.** For `NCCC[C@H](N)C(=O)O` [L-ornithine], which “local tolerability / irritation” value (injection site [2]) is on record?
**A.** Its value is “excellent local tolerability”.

**Q.** For `[O]=[Mg]` [MgO, Magnesium oxide], which “local tolerability / irritation” value (injection site [3]) is on record?
**A.** Its value is “irritant for tissue”.

**Q.** With `OCCNCCO` [diethanolamine] as the compound, how does the “local tolerability / irritation” value (injection site [1]; in vivo) read?
**A.** The value was “very irritant”.

**Q.** Which “local tolerability / irritation” value (injection site [1]; [4]) does the source give for `NCCO` [monoethanolamine] here?
**A.** The value was “very irritant”.

**Q.** With polyethylene glycol as the compound, how does the “local tolerability / irritation” value (injection site [1]; in vivo) read?
**A.** Its value is “highly irritant and have haemolytic effects”.
